By Solubility is commonly meant the concentration that dissolves in the medium under given conditions. Lower therefore signals a poorly soluble substance. In general, chromatographic logD refers to a lipophilicity value derived from retention on a column.

Each structure is given as a SMILES string. Values after ≈ are worked out from the molar mass of the structure shown. Where two headings read alike, the source gives them in different places.

A short description of one data set: CHI Log D procedure. In kind it is physicochemical. The conditions noted are these: for CHI Log D: pH 7.4; for chromatographic logD: pH 7.4, CHI Log D.
A further data set can be described thus: Solubility in PBS. In kind it is physicochemical. An outline of the steps: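 Solubility is derived from HPLC peak areas: the ratio of the PBS supernatant peak to a 50 μM DMSO peptide peak, times 50 uM.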
Data set [1] deals with T1, full-length beta-Catenin (Uniprot ID P35222) (Homo sapiens, UniProt P35222).
T1 construct: 10 nM full-length beta-Catenin (Uniprot ID P35222)
T1 sequence (P35222 1-781): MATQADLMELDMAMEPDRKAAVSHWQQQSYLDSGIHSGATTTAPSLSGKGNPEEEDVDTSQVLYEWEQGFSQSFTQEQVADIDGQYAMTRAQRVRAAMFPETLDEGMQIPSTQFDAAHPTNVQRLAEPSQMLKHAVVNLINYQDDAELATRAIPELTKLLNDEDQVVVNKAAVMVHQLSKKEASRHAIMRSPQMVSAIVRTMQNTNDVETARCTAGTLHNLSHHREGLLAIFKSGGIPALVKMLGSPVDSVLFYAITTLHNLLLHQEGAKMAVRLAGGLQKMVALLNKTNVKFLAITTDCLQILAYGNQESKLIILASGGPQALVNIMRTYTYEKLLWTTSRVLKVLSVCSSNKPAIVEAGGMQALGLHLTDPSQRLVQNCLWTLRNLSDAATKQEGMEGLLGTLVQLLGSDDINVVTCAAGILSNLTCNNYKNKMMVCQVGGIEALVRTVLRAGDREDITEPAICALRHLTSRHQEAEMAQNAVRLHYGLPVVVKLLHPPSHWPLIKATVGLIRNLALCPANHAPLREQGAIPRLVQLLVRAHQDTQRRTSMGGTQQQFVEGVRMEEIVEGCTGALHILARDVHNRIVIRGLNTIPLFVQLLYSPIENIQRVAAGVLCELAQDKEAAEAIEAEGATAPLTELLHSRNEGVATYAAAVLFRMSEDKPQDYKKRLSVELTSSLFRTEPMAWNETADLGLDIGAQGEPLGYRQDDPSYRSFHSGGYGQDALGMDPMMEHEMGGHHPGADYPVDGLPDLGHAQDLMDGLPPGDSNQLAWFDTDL
Put plainly: Fluorescence polarization IC50 (beta-catenin / 5FAM-TCF4 10-53 competition). The data set is classed as binding. (Fluorescence polarisation rises when a labelled molecule tumbles more slowly, as on binding a larger partner.)

With `CC(=O)N1CCC[C@]12CC=CCCCC1(CCCC=CCCCCCC[C@@](C)(C(=O)N[C@@H](Cc3ccccc3)C(=O)N[C@@H](Cc3csc4ccccc34)C(=O)N[C@@H](C(N)=O)[C@H](C)O)NC(=O)[C@H](CC(N)=O)NC(=O)[C@H](Cc3ccccc3)NC(=O)[C@H](C)NC(=O)[C@H](C)NC(=O)[C@H](CCC(=O)O)NC(=O)[C@H](CC(=O)O)NC1=O)NC(=O)[C@H](CC(C)C)NC(=O)[C@H](CC(=O)O)NC2=O` (stereo partly drawn) [I-755, Ac-PL3-Asp-Leu-B5-Asp-Glu-Ala-Ala-Phe-Asn-S8-Phe-BztA-dThr-NH2], the “CHI Log D” value in the data set “CHI Log D procedure” was determined as 2.684. The “Solubility” value in “Solubility in PBS” is 47 µM (≈ 86.6 µg/mL). The IC50 in data set [1] (read-out: FP EC50) and in data set [1] (read-out: beta-Catenin FP IC50) was 0.088 µM throughout.

In “CHI Log D procedure”, `CC(=O)N1CCC[C@]12CC=CCCCC1(CCCC=CCCCCCC[C@@](C)(C(=O)N[C@@H](Cc3ccccc3)C(=O)N[C@@H](Cc3csc4ccccc34)C(=O)N[C@H](CO)C(N)=O)NC(=O)[C@H](CC(N)=O)NC(=O)[C@H](Cc3ccccc3)NC(=O)[C@H](C)NC(=O)[C@H](C)NC(=O)[C@H](CCC(=O)O)NC(=O)[C@H](CC(=O)O)NC1=O)NC(=O)[C@H](CC(C)C)NC(=O)[C@H](CC(=O)O)NC2=O` (stereo partly drawn) [I-756, Ac-PL3-Asp-Leu-B5-Asp-Glu-Ala-Ala-Phe-Asn-S8-Phe-BztA-dSer-NH2] had a chromatographic logD of 2.61. In “Solubility in PBS” (Solubility (uM)), the Solubility came to 49 µM (≈ 89.6 µg/mL). For the same compound, the IC50 in data set [1] (read-out: beta-Catenin FP IC50) was determined as 0.056 µM.

Regarding `CC(=O)N1CCC[C@]12CC=CCCCC1(CCCC=CCCCCCC[C@@](C)(C(=O)N[C@@H](Cc3ccccc3)C(=O)N[C@@H](Cc3csc4ccccc34)C(=O)N[C@H](CC(N)=O)C(N)=O)NC(=O)[C@H](CC(N)=O)NC(=O)[C@H](Cc3ccccc3)NC(=O)[C@H](C)NC(=O)[C@H](C)NC(=O)[C@H](CCC(=O)O)NC(=O)[C@H](CC(=O)O)NC1=O)NC(=O)[C@H](CC(C)C)NC(=O)[C@H](CC(=O)O)NC2=O` (stereo partly drawn) [I-758, Ac-PL3-Asp-Leu-B5-Asp-Glu-Ala-Ala-Phe-Asn-S8-Phe-BztA-dAsn-NH2], in “CHI Log D procedure”, the “CHI Log D” value came to 2.571. For the same compound, in the data set “Solubility in PBS”, the “Solubility” value amounted to 47 µM (≈ 87.2 µg/mL). Besides, the IC50 in data set [1] (read-out: FP EC50) and in data set [1] (read-out: beta-Catenin FP IC50) was 0.047 µM in each case.

On to `CC(=O)N1CCC[C@]12CC=CCCCC1(CCCC=CCCCOC(=O)N3CC[C@@](C(=O)N[C@@H](Cc4ccsc4)C(=O)N[C@@H](Cc4csc5ccccc45)C(=O)N[C@@H](CCC(N)=O)C(N)=O)(C3)NC(=O)[C@H](CCC(N)=O)NC(=O)[C@H](Cc3ccccc3)NC(=O)[C@H](C)NC(=O)[C@H](C)NC(=O)[C@H](CC(=O)O)NC(=O)[C@H](CC(=O)O)NC1=O)NC(=O)[C@H](CC(C)(C)C)NC(=O)[C@H](CC(=O)O)NC2=O` (stereo partly drawn) [I-764, Ac-PL3-Asp-Npg-B5-Asp-Asp-Ala-Ala-Phe-Gln-PyrS2-3Thi-BztA-Gln-NH2], for which, in the data set “CHI Log D procedure”, the “CHI Log D” value worked out at 2.212. The “Solubility” value in “Solubility in PBS” came out at 45 µM (≈ 86.9 µg/mL). Moreover, the IC50 in data set [1] (read-out: FP EC50) and in data set [1] (read-out: beta-Catenin FP IC50) was 0.014 µM each time.

As for `CC(=O)N1CCC[C@]12CC=CCCCC1(CCCC=CCOC(=O)N(C)CCC[C@@](C)(C(=O)N[C@@H](Cc3ccsc3)C(=O)N[C@@H](Cc3csc4ccccc34)C(=O)N[C@@H](CCC(N)=O)C(N)=O)NC(=O)[C@H](CC(N)=O)NC(=O)[C@H](Cc3ccccc3)NC(=O)[C@H](C)NC(=O)[C@H](C)NC(=O)[C@H](CC(=O)O)NC(=O)[C@H](CC(=O)O)NC1=O)NC(=O)[C@H](CC(C)(C)C)NC(=O)[C@H](CC(=O)O)NC2=O` (stereo partly drawn) [I-765, Ac-PL3-Asp-Npg-B5-Asp-Asp-Ala-Ala-Phe-Asn-SeN-3Thi-BztA-Gln-NH2], the “CHI Log D” value in the data set “CHI Log D procedure” amounted to 1.71. The “Solubility” value in “Solubility in PBS” worked out at 49 µM (≈ 94.1 µg/mL). For the same compound, the IC50 in data set [1] (read-out: FP EC50) and in data set [1] (read-out: beta-Catenin FP IC50) was 0.228 µM each time.

On to `CC(=O)N1CCC[C@]12CC=CCCCC1(CCCC=CCOC(=O)N(C)CCC[C@@](C)(C(=O)N[C@@H](Cc3ccsc3)C(=O)N[C@@H](Cc3csc4ccccc34)C(=O)N[C@@H](CCC(N)=O)C(N)=O)NC(=O)[C@H](CC(N)=O)NC(=O)[C@H](Cc3ccccc3)NC(=O)[C@H](C)NC(=O)[C@H](C)NC(=O)[C@H](CC(=O)O)NC(=O)[C@H](CC(=O)O)NC1=O)NC(=O)[C@H](CC(C)(C)C)NC(=O)[C@H](CC(=O)O)NC2=O` (stereo partly drawn) [I-766, Ac-PL3-Asp-Npg-B5-Asp-Asp-Ala-Ala-Phe-Asn-SeN-3Thi-BztA-Gln-NH2], for which the “CHI Log D” value in the data set “CHI Log D procedure” stood at 1.853. In addition, the “Solubility” value in “Solubility in PBS” is 50 µM (≈ 96 µg/mL). Besides, the IC50 in data set [1] (read-out: FP EC50) and in data set [1] (read-out: beta-Catenin FP IC50) was 0.055 µM in each case.

Consider `CC(=O)N1CCC[C@]12CC=CCCCC1(CCCC=CCOC(=O)N(C)CCC[C@@](C)(C(=O)N[C@@H](Cc3ccsc3)C(=O)N[C@@H](Cc3csc4ccccc34)C(=O)N[C@@H](Cc3c[nH]cn3)C(N)=O)NC(=O)[C@H](CC(N)=O)NC(=O)[C@H](Cc3ccccc3)NC(=O)[C@H](C)NC(=O)[C@H](C)NC(=O)[C@H](CC(=O)O)NC(=O)[C@H](CC(=O)O)NC1=O)NC(=O)[C@H](CC(C)(C)C)NC(=O)[C@H](CC(=O)O)NC2=O` (stereo partly drawn) [I-773, Ac-PL3-Asp-Npg-B5-Asp-Asp-Ala-Ala-Phe-Asn-SeN-3Thi-BztA-His-NH2], for which the “CHI Log D” value in “CHI Log D procedure” was 1.76. Also, the “Solubility” value in “Solubility in PBS” stood at 47 µM (≈ 90.7 µg/mL). Moreover, the IC50 in data set [1] (read-out: FP EC50) and in data set [1] (read-out: beta-Catenin FP IC50) was 0.167 µM throughout.

For the compound `CC(=O)N1CCC[C@]12CC=CCCCC1(CCCC=CCOC(=O)N(C)CCC[C@@](C)(C(=O)N[C@@H](Cc3ccsc3)C(=O)N[C@@H](Cc3csc4ccccc34)C(=O)N[C@@H](Cc3c[nH]cn3)C(N)=O)NC(=O)[C@H](CC(N)=O)NC(=O)[C@H](Cc3ccccc3)NC(=O)[C@H](C)NC(=O)[C@H](C)NC(=O)[C@H](CC(=O)O)NC(=O)[C@H](CC(=O)O)NC1=O)NC(=O)[C@H](CC(C)(C)C)NC(=O)[C@H](CC(=O)O)NC2=O` (stereo partly drawn) [I-774, Ac-PL3-Asp-Npg-B5-Asp-Asp-Ala-Ala-Phe-Asn-SeN-3Thi-BztA-His-NH2], the “CHI Log D” value in the data set “CHI Log D procedure” came to 1.928. Besides, the “Solubility” value in “Solubility in PBS” amounted to 46 µM (≈ 88.7 µg/mL). Also, the IC50 in data set [1] (read-out: FP EC50) and in data set [1] (read-out: beta-Catenin FP IC50) was 0.038 µM in each case.

Regarding `CC(=O)N1CCC[C@]12CC=CCCCC1(CCCC=CCCCCOC(=O)N3CC[C@@](C(=O)N[C@@H](Cc4ccsc4)C(=O)N[C@@H](Cc4csc5ccccc45)C(=O)N[C@@H](Cc4c[nH]cn4)C(N)=O)(C3)NC(=O)[C@H](CC(N)=O)NC(=O)[C@H](Cc3ccccc3)NC(=O)[C@H](C)NC(=O)[C@H](C)NC(=O)[C@H](CC(=O)O)NC(=O)[C@H](CC(=O)O)NC1=O)NC(=O)[C@H](CC(C)(C)C)NC(=O)[C@H](CC(=O)O)NC2=O` (stereo partly drawn) [I-776, Ac-PL3-Asp-Npg-B5-Asp-Asp-Ala-Ala-Phe-Asn-PyrS3-3Thi-BztA-His-NH2], in “CHI Log D procedure”, the “CHI Log D” value stood at 2.137. The “Solubility” value in “Solubility in PBS” was determined as 41 µM (≈ 79.6 µg/mL). Further, in data set [1] (read-out: beta-Catenin FP IC50), the IC50 worked out at 0.005 µM.

`CC(=O)N1CCC[C@]12CC=CCCCC1(CCCC=CCCCOC(=O)N3CC[C@@](C(=O)N[C@@H](Cc4cccs4)C(=O)N[C@@H](Cc4csc5ccccc45)C(=O)N[C@@H](Cc4c[nH]cn4)C(N)=O)(C3)NC(=O)[C@H](CC(N)=O)NC(=O)[C@H](Cc3ccccc3)NC(=O)[C@H](C)NC(=O)[C@H](C)NC(=O)[C@H](CC(=O)O)NC(=O)[C@H](CC(=O)O)NC1=O)NC(=O)[C@H](CC(C)(C)C)NC(=O)[C@H](CC(=O)O)NC2=O` (stereo partly drawn) [I-779, Ac-PL3-Asp-Npg-B5-Asp-Asp-Ala-Ala-Phe-Asn-PyrS2-2Thi-BztA-His-NH2] had a chromatographic logD in the data set “CHI Log D procedure” of 2.12. Besides, the concentration in solution in “Solubility in PBS” (Solubility (uM)) (Solubility) came to 44 µM (≈ 84.8 µg/mL). For the same compound, the IC50 in data set [1] (read-out: beta-Catenin FP IC50) came to 0.005 µM.

The record behind these values is patent publication US20240116985A1, “STAPLED PEPTIDES AND METHODS THEREOF” (priority 2020, published 2024).
